Experimental data taken from patent US4071622A, “Treatment of a mammary or DMBA inducible tumor” (Abbott Laboratories, priority 1976, dated 1978).

Tested on: DMBA-induced tumors
Experiment: Regression of DMBA-induced tumors in female rats, 11-day treatment
Format: in vivo
Conditions: for total tumor volume of the treated group, day 3 / total tumor volume of the treated group, day 6 / total tumor volume of the treated group, day 10 / total tumor volume of the treated group upon sacrifice, day 11 / tumor volume of one specific animal, day 3 / tumor volume of one specific animal, day 6 / tumor volume of one specific animal, day 10 / tumor volume of one specific animal, day 11: 20 μg/day s.c., b.i.d.; for total tumor volume of the treated group, day 3: day 3 of treatment; for total tumor volume of the treated group, day 6: day 6 of treatment; for total tumor volume of the treated group, day 10: day 10 of treatment; for total tumor volume of the treated group upon sacrifice, day 11 / tumor volume of one specific animal, day 11: day 11, sacrifice; for total tumor volume of the treated group at the beginning of the treatment: day 0, 100 days after 20 mg DMBA intragastric, all tumors of the group summed; for tumor volume of one specific animal at start of treatment / tumor volume of one specific animal, day 3 / tumor volume of one specific animal, day 6 / tumor volume of one specific animal, day 10 / tumor volume of one specific animal, day 11: one animal of the group; for total volume reduction in one specific animal: start to day 11
Description: In a group of 3 female, 50-day old rats, tumors were induced by intragastric feeding of 20 mg of 7,12-dimethylbenzanthracene (DMBA) in 2 ml. of sesame oil. The animals developed tumors within 10-12 weeks. All animals were maintained on normal rations for 100 days following the DMBA administration, at which time treatment with the compound identified as Compound A was started, using a b.i.d. regimen for 11 days, 20 μg/day, the compound being administered subcutaneously dissolved in isotonic saline containing 0.1% (wt/vol.) of bovine serum albumin.
The three animals carried a total of 7 tumors at the beginning of the treatment with a total volume of 39.2 cc. After 3 days, the 7 tumors had reduced to a volume of 26.7 cc; on day 6 the volume had reduced to 18.6 cc, on day 10 it was 8.7 cc, which was also the volume upon sacrifice of the animals on day 11.
The animals were prepared and pre-treated in the same fashion as those in Example 2, but Compound B was used for the 11-day treatment. The three rats used started the regimen with a total of 7 tumors of 43.3 cc total volume. Again, the tumor volumes were measured on days 3, 6, 10 and upon sacrifice, showing 37.5, 24.9, 16.3 and 15.0 cc respectively.
Except for the use of Compound C, all steps of the preceding two examples were repeated. The total of 13.4 cc of volume of 3 tumors in two rats was reduced to 10.1, 5.4, 6.4 and 5.5 cc on days 3, 6, 10 and 11. […] However, that tumor was found reduced to 3.0 cc on day 11. A third animal treated in the same fashion started out the regimen with 4 tumors of 28.1 cc which reduced to 15 cc by day 6. The animal died thereafter of causes diagnosed as having no connection with the tumors or the treatment (chronic murine pneumonia).

## CCNC(=O)[C@@H]1CCCN1C(=O)[C@H](CCCNC(=N)N)NC(=O)[C@H](CC(C)C)NC(=O)[C@@H](Cc1ccc(O)cc1)NC(=O)[C@H](Cc1ccc(O)cc1)NC(=O)[C@H](CO)NC(=O)[C@H](Cc1c[nH]c2ccccc12)NC(=O)[C@H](Cc1c[nH]cn1)NC(=O)[C@@H]1CCC(=O)N1 [Compound B]
  total tumor volume of the treated group, day 3: 37.5 cc
  total tumor volume of the treated group, day 6: 24.9 cc
  total tumor volume of the treated group, day 10: 16.3 cc
  total tumor volume of the treated group upon sacrifice, day 11: 15.0 cc
  tumor volume of one specific animal, day 3: 2.5 cc
  tumor volume of one specific animal, day 11: 0.125 cc
  total volume reduction in one specific animal: 96.5%
baseline
  total tumor volume of the treated group at the beginning of the treatment: 43.3 cc
  tumor volume of one specific animal at start of treatment: 3.6 cc
Day 6
  tumor volume of one specific animal, day 6: 1.33 cc
Day 10
  tumor volume of one specific animal, day 10: 0.73 cc

## CCNC(=O)[C@@H]1CCCN1C(=O)[C@H](CCCNC(=N)N)NC(=O)[C@H](CC(C)C)NC(=O)[C@@H](Cc1ccccc1)NC(=O)[C@H](Cc1ccc(O)cc1)NC(=O)[C@H](CO)NC(=O)[C@H](Cc1c[nH]c2ccccc12)NC(=O)[C@H](Cc1c[nH]cn1)NC(=O)[C@@H]1CCC(=O)N1 [Compound C]
  total tumor volume of the treated group, day 3: 10.1 cc
  total tumor volume of the treated group, day 6: 5.4 cc
  total tumor volume of the treated group, day 10: 6.4 cc
  total tumor volume of the treated group upon sacrifice, day 11: 5.5 cc
baseline
  total tumor volume of the treated group at the beginning of the treatment: 13.4 cc
Single tumor that spontaneously increased between days 6 and 10, day 6
  volume of one single tumor in one animal, day 6: 0.38 cc
Single tumor that spontaneously increased between days 6 and 10, day 10
  volume of one single tumor in one animal, day 10: 4.6 cc
Single tumor that spontaneously increased between days 6 and 10, day 11
  volume of one single tumor in one animal, day 11: 3.0 cc
Third animal, not in the group total, baseline
  tumor volume of a third animal with 4 tumors at start of regimen: 28.1 cc
Third animal, not in the group total, day 6, animal died thereafter of unrelated chronic murine pneumonia
  tumor volume of a third animal with 4 tumors, by day 6: 15 cc

## CCNC(=O)[C@@H]1CCCN1C(=O)[C@H](CCCNC(=N)N)NC(=O)[C@H](CC(C)C)NC(=O)[C@@H](Cc1c[nH]c2ccccc12)NC(=O)[C@H](Cc1ccc(O)cc1)NC(=O)[C@H](CO)NC(=O)[C@H](Cc1c[nH]c2ccccc12)NC(=O)[C@H](Cc1c[nH]cn1)NC(=O)[C@@H]1CCC(=O)N1 [Compound A]
  total tumor volume of the treated group, day 3: 26.7 cc
  total tumor volume of the treated group, day 6: 18.6 cc
  total tumor volume of the treated group, day 10: 8.7 cc
  total tumor volume of the treated group upon sacrifice, day 11: 8.7 cc
  tumor volume of one specific animal, day 3: 7.5 cc
  tumor volume of one specific animal, day 11: 3.76 cc
  total volume reduction in one specific animal: 67.7%
baseline
  total tumor volume of the treated group at the beginning of the treatment: 39.2 cc
  tumor volume of one specific animal at start of treatment: 11.65 cc
Day 6
  tumor volume of one specific animal, day 6: 8.1 cc
Day 10
  tumor volume of one specific animal, day 10: 3.8 cc
